# From patent US20020164663A1, “Methods and compositions for detection, diagnosis and prediction of antiestrogen-resistant breast cancer” (BOARD OF REGENTS, THE UNIVERSITY OF TEXAS SYSTEM, priority 1998, published 2002)
# What was measured:
# VEGF = experiment: cDNA expression array of MCF-7 tumors (estrogen-stimulated, tamoxifen-sensitive, tamoxifen-resistant); assay type: in vivo, human; settings: breast cancers treated with tamoxifen in comparison with estrogen-stimulated breast cancer; FIG. 6
# Experimental: (§1) MCF-7 tumors were inoculated into the mammary fat pads of athymic nude mice supplemented with an estrogen pellet as described previously (Osborne et al., 1985) until tumors arose. The estrogen pellets were removed and the animals were treated with tamoxifen. […] Invariably, however, after initial growth suppression, the tumors became resistant and growth resumed. Animals were sacrificed at various times to obtain cells from estrogen-stimulated (ES) tumors prior to tamoxifen treatment, from tamoxifen-sensitive (TS) tumors during tamoxifen treatment but prior to acquired resistance, and from tamoxifen-resistant (TR) tumors after tumor growth had resumed.
# (§2) RNA was prepared from these tumors (n=5 tumors per group) using RNeasy kits (Qiagen Inc., Valencia, Calif.), and mRNA was isolated on Dynabeads (Dyne, Oslo, Norway) according to manufacturer's instructions. […]
# (§3) The controls, which were more difficult to quantitate reliably, were not included in the statistical analyses. […]
# (§4) Principal Components Analysis (PCA) of mean-centered log-transformed data, based on the variance-covariance matrix (Tatsuoka, 1971), was then used to standardize across the three hybridizations and to extract three new axes (components P1, P2, and P3), expressed as linear combinations of the original axes (ES, TS, and TR). […]
# bFGFR = experiment: as above; assay type: in vivo, human; settings: breast cancers treated with tamoxifen in comparison with estrogen-stimulated breast cancer; FIG. 6
# Experimental: as §1, §2, §3, §4
# MCF-7 tumors = MCF-7 tumors in mammary fat pads of athymic nude mice, tamoxifen treatment after removal of estrogen pellet; assay type: in vivo; settings: athymic nude mice with MCF-7 tumors; estrogen pellets removed, treated with tamoxifen; later tumors became resistant and growth resumed
# Experimental: as §1
structure (smiles),measurement,setting,value
CC/C(=C(\c1ccccc1)c1ccc(OCCN(C)C)cc1)c1ccccc1 [tamoxifen],VEGF expression,VEGF,decreased expression
same,bFGFR expression,bFGFR,decreased expression
same,Tumor volumes,MCF-7 tumors,declined and remained stable for several months
